Laboratory results taken from PMC7351949, “Molecular basis for the distinct functions of redox-active and FeS-transfering glutaredoxins” (Nature Communications, 2020).

How the values were obtained:
Grx2 = target: T1, Grx2 (Homo sapiens, UniProt Q9NS18); test: UV/Vis spectroscopy of reconstituted holo-complex; format: binding; conditions: bridges a dimer, co-ligated by two GSH; reconstituted with GSH, cysteine, iron and IscS, pH 8.0
T1 construct: gene GLRX2; Grx2c, His-tagged, recombinant from E. coli, IMAC purified; monomeric apo form, dimeric as Fe2S2 holo-complex
T1 sequence (Q9NS18 1-165 isoform Q9NS18-2): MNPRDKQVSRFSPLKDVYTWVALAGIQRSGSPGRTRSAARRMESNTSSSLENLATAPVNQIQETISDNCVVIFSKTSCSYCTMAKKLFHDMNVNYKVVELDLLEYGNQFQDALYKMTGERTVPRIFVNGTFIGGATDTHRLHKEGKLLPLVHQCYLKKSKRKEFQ

Grx5 = target: T2, Grx5 (Homo sapiens, UniProt Q86SX6); test: UV/Vis spectroscopy of reconstituted holo-complex; format: binding; conditions: bridges a dimer, co-ligated by two GSH; reconstituted with GSH, cysteine, iron and IscS, pH 8.0
T2 construct: gene GLRX5; transit peptide removed (forward primer encodes M-GSGAG...), pET15b, His-tagged, recombinant from E. coli, IMAC purified; dimeric as Fe2S2 holo-complex
T2 sequence (Q86SX6 33-157): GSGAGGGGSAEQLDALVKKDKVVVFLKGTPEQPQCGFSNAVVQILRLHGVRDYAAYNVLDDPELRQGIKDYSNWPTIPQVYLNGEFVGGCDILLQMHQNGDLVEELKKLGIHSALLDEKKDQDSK

AtGrxC1 = target: T3, AtGrxC1 (Arabidopsis thaliana, UniProt Q8L8T2); test: HED assay, NADPH / glutathione reductase coupled; format: biochemical; conditions: read-out: HED assay / Km app (HED) / μM; 1 mM GSH, 200 µM NADPH, yeast glutathione reductase, 100 mM potassium phosphate pH 7.8; actual substrate is the mixed disulfide βME-SG formed from HED and GSH
T3 construct: gene GRXC1; His-tagged, recombinant, IMAC purified
Text: HED assay, NADPH / glutathione reductase coupled on AtGrxC1

T3 sequence (Q8L8T2 whole entry): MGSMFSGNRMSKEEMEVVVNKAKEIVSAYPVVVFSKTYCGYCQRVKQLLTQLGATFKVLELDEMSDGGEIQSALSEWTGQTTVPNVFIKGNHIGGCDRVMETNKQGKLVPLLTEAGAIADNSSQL

SMILES	UV/Vis spectroscopy of reconstituted holo-complex (Grx2)	UV/Vis spectroscopy of reconstituted holo-complex (Grx5)	Km (AtGrxC1) [µM]
[S]1[Fe][S][Fe]1 [Fe2S2 cluster]	The UV/VIS spectra (Fig. 4a) demonstrate the ability of all proteins to form FeS	The UV/VIS spectra (Fig. 4a) demonstrate the ability of all proteins to form FeS	
OCCSSCCO [HED]			773 ± 164
